Data on 9 compounds can be found in publication PMC10714399, “Open Source Antibiotics: Simple Diarylimidazoles Are Potent against Methicillin-Resistant Staphylococcus aureus” (ACS Infectious Diseases, 2023).

In brackets after ≈: the same amount, converted by molar mass. Read-outs that look alike come from different tables or passages of the source.

In series [1] the test system is Enterococcus faecalis ATCC 51299 (vanA-positive; vancomycin-resistant). Put plainly: In vitro antibacterial activity, MIC (UCL), VRE. The format is cell-based. In short, it runs like this: (§1)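 Growth inhibition was read as MIC across a two-fold range of 32 down to 0.03 μg/mL in isosensitest broth. Bacteria from overnight plates were set to A600 0.1 in PBS, about 1 × 10^8 CFU/mL, and diluted 1:100 before inoculation.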

The test system of series [2] is S. aureus ATCC 25923 (methicillin-susceptible). Put plainly: In vitro antibacterial activity, MIC (UCL), MSSA. The format is cell-based, Staphylococcus aureus. The note with it: Staphylococcus aureus. The method, boiled down: as §1
Series [3] can be described thus: Human liver microsome intrinsic clearance. It counts as in vitro ADME. The source says: (§2) To guide our initial SAR exploration work, we obtained liver microsomal intrinsic clearance data for 5 of the 18 compounds assayed by CO-ADD (Supporting Information - CDCO Report and Supporting Information - Biology). We then acquired intrinsic clearance (CLint), plasma protein binding (PPB), and solubility data on further compounds throughout the SAR campaign (Supporting Information - Biology, Tables S3 and S4).
(§3) Table S4. ADME and Pharmacokinetics: compounds only appearing in the Supplementary […]
(§4) MRSA Aqueous HLM CLint Rat Hep CLint
(§5) Cmpd MIC Solubility Human PPB (%) (µL/min/mg (µL/min/10x6 LogD7.4
(§6) (µg/mL) (µM) protein) cells)
(§7) ADME and toxicity for compounds were measured according to procedures outlined in the manuscript submitted in parallel to this one;2 other procedures were used for those compounds analysed by Monash University (in vitro ADME) or UCL (toxicity), both described in the main

A short description of series [4]: Rat hepatocyte intrinsic clearance. It counts as in vitro ADME.
From the text: as §2, §3, §4, §5, §6, §7

Series [5] can be described thus: Human plasma protein binding (PPB). It counts as in vitro ADME. To be noted: human, plasma.
From the text: as §2, §3, §4, §5, §6, §7

Another series in a line: Aqueous solubility. The format is physicochemical. To be noted: for solubility: thermodynamic from solid.
From the text: To guide our initial SAR exploration work, we obtained liver microsomal intrinsic clearance data for 5 of the 18 compounds assayed by CO-ADD (Supporting Information - CDCO Report and Supporting Information - Biology). We then acquired intrinsic clearance (CLint), plasma protein binding (PPB), and solubility data on further compounds throughout the SAR campaign (Supporting Information - Biology, Tables S3 and S4). […] The more polar compounds (lower LogD) had reduced PPB and were more metabolically stable.
as §3, §4, §5, §6, §7

The test system of series [6] is Staphylococcus aureus NCTC 13373 (mecA-positive; methicillin-resistant). Put plainly: In vitro antibacterial activity, MIC (UCL School of Pharmacy assay), MRSA. The note with it: for MIC: Staphylococcus aureus. It counts as cell-based. In short, it runs like this: as §1
For series [7], the system named is MRC-5SV2 (human lung fibroblast cell line). Put plainly: Toxicity against MRC-5SV2. It counts as cell-based. The note with it: MRC5 cells. The protocol: as §7
In series [8] the test system is PMM (primary mouse macrophages). Put plainly: Toxicity against PMM. It counts as cell-based. The note with it: PMM. Here is the method: as §7
Where [9] appears, read: human liver microsomes, NEU, read-out: HLM CLint (NEU).
The mark [10] stands for this setting: human plasma, NEU, read-out: Human PPB (NEU) (converted).
Setting [11] is: NEU, read-out: Aqueous Solubility (NEU).
Setting [12] is: rat hepatocytes, NEU, read-out: Rat Hep CLint (NEU).
The mark [13] stands for this setting: human, liver microsomes, read-out: HLM CLint.
Where [14] appears, read: rat, hepatocytes, Figure 4, read-out: Rat Hep CLint.
Setting [15] is: read-out: Human PPB (converted).

`Fc1ccc(N(CC2CC2)c2c(-c3ccccn3)nc3ccccn23)cc1` [OSA_000979]: the MIC was 4 µg/mL (≈ 11.2 µM) in [1] (read-out: VRE MIC (UCL)); 2 µg/mL (≈ 5.58 µM) in series [2] (read-out: MSSA MIC (UCL)); 2 µg/mL (≈ 5.58 µM) in series [6] (UCL, read-out: MRSA MIC (UCL)). Besides, the microsomal CLint in series [3] (setting [9]) is 105 µL/min/mg. For the same compound, the “Rat Hep CLint (NEU)” value in series [4] (rat hepatocytes, NEU) is reported as 141 uL/min/10x6 cells. For the same compound, the fraction unbound in series [5] (setting [10]) is 0.0067. In the series “Aqueous solubility” (setting [11]), the solubility stood at 2 µM (≈ 0.717 µg/mL). For the same compound, in series [7], the “MRC5 TC50” value worked out at 7.8 µM. The “PMM TC50” value in series [8] was 4 µM.
With `COc1ccc2nc(-c3ccccn3)c(N(C)c3ccc(F)cc3)n2c1` [OSA_000980], the MIC in series [1] (read-out: VRE MIC (UCL)) is 8 µg/mL (≈ 23 µM); in [2] (read-out: MSSA MIC (UCL)), 4 µg/mL (≈ 11.5 µM); in [6] (UCL, read-out: MRSA MIC (UCL)), 4 µg/mL (≈ 11.5 µM). Moreover, the “HLM CLint (NEU)” value in [3] (human liver microsomes, NEU) was 251 uL/min/mg protein. Moreover, in series [4] (setting [12]), the hepatocyte CLint was over 300 µL/min/1e6 cells. In addition, the fraction unbound in series [5] (setting [10]) was 0.02. Further, the solubility in the series “Aqueous solubility” (setting [11]) was 17 µM (≈ 5.92 µg/mL). In addition, the “MRC5 TC50” value in [7] is 2 µM. Further, the “PMM TC50” value in [8] was 8 µM.
On to `CCN(c1ccc(F)cc1)c1c(-c2ccccn2)nc2ccccn12` [OSA_000981], for which the MIC in series [1] (read-out: VRE MIC (UCL)) came out at 8 µg/mL (≈ 24.1 µM); in [2] (read-out: MSSA MIC (UCL)) it was 2 µg/mL (≈ 6.02 µM); in series [6] (UCL, read-out: MRSA MIC (UCL)), 2 µg/mL (≈ 6.02 µM). The “HLM CLint (NEU)” value in series [3] (human liver microsomes, NEU) was found to be 180 uL/min/mg protein. In addition, in series [4] (setting [12]), the hepatocyte CLint is 148 µL/min/1e6 cells. Further, the fraction unbound in [5] (setting [10]) is 0.022. The solubility in the series “Aqueous solubility” (setting [11]) was determined as 31 µM (≈ 10.3 µg/mL). The “MRC5 TC50” value in series [7] was 4.9 µM. In addition, the “PMM TC50” value in series [8] was determined as 8 µM.
`CCCN(c1ccc(F)cc1)c1c(-c2ccccn2)nc2ccccn12` [OSA_000982]: the MIC in [1] (read-out: VRE MIC (UCL)) was determined as 4 µg/mL (≈ 11.5 µM); in [2] (read-out: MSSA MIC (UCL)), 2 µg/mL (≈ 5.77 µM); in series [6] (UCL, read-out: MRSA MIC (UCL)), 2 µg/mL (≈ 5.77 µM). In addition, in series [3] (human liver microsomes, NEU), the “HLM CLint (NEU)” value was 61.8 uL/min/mg protein. Besides, the “Rat Hep CLint (NEU)” value in series [4] (rat hepatocytes, NEU) was 108 uL/min/10x6 cells. Further, in series [5] (setting [10]), the fraction unbound is 0.0073. Further, the “Aqueous Solubility (NEU)” value in “Aqueous solubility” (NEU) amounted to 3 µM. In series [7], the “MRC5 TC50” value amounted to 4.3 µM. Besides, in series [8], the “PMM TC50” value came to 2 µM.
Turning to `COc1ccnc(-c2nc3ccccn3c2N(C)c2ccc(F)cc2)c1` [OSA_001007], the MIC came out at 8 µg/mL (≈ 23 µM) in series [2] (read-out: MSSA MIC (UCL)) and 8 µg/mL (≈ 23 µM) in series [6] (UCL, read-out: MRSA MIC (UCL)). The microsomal CLint in [3] (setting [9]) was determined as 214 µL/min/mg. The hepatocyte CLint in series [4] (setting [12]) is over 300 µL/min/1e6 cells. Moreover, the fraction unbound in series [5] (setting [10]) was 0.025. Also, the solubility in the series “Aqueous solubility” (setting [11]) came to 26 µM (≈ 9.06 µg/mL).
In the case of `CC(=O)N(c1ccc(F)cc1)c1c(-c2ccccn2)nc2ccccn12` [OSA_001021], the MIC in series [2] (UCL assay, read-out: MSSA MIC (ug/mL) (UCL)) is over 32 µg/mL; in [6] (UCL assay, read-out: MRSA MIC (ug/mL) (UCL)), over 32 µg/mL. For the same compound, in series [3] (human liver microsomes, NEU), the “HLM CLint (uL/min/mg protein) (NEU)” value was determined as 19.8 uL/min/mg protein. In addition, the “Rat Hep CLint (uL/min/10x6 cells) (NEU)” value in series [4] (rat hepatocytes, NEU) was determined as 81.2 uL/min/10x6 cells. Also, in series [5] (human plasma, NEU, read-out: Human PPB (%) (NEU) (converted)), the fraction unbound is 0.17. In addition, the solubility in the series “Aqueous solubility” (NEU, read-out: Aqueous Solubility (uM) (NEU)) worked out at 10 µM (≈ 3.46 µg/mL). Further, in [7], the “MRC5 TC50” value amounted to 64 µM. The “PMM TC50” value in series [8] is 64 µM.
In the case of `CS(=O)(=O)c1ccc(-c2c(-c3ccccn3)nc3n2CCC3)cc1` [compound 837], the MIC in series [1] (read-out: VRE MIC) is over 32 µg/mL; in series [6] (16 h, read-out: MRSA MIC), over 32 µg/mL; in series [6] (read-out: MRSA MIC), over 32 µg/mL. For the same compound, in [3] (setting [13]), the microsomal CLint was under 3 µL/min/mg. Further, in [4] (setting [14]), the hepatocyte CLint is under 1 µL/min/1e6 cells. Moreover, in series [5] (setting [15]), the fraction unbound was 0.4. Besides, in “Aqueous solubility” (read-out: Aqueous Solubility), the solubility was 317 µM (≈ 108 µg/mL). The “activity against MRSA, in words” value in series [6] is listed as “not tolerated”.
Turning to `C[S+]([O-])c1ccc(-c2c(-c3ccccn3)nc3n2CCC3)cc1` (stereo not shown) [compound 838], the MIC was over 32 µg/mL in series [1] (read-out: VRE MIC); over 32 µg/mL in series [6] (16 h, read-out: MRSA MIC); over 32 µg/mL in series [6] (read-out: MRSA MIC). In series [3] (setting [13]), the microsomal CLint is under 3 µL/min/mg. Also, the hepatocyte CLint in series [4] (setting [14]) was under 1 µL/min/1e6 cells. In addition, the fraction unbound in [5] (setting [15]) was 0.45. Besides, in the series “Aqueous solubility” (read-out: Aqueous Solubility), the solubility stood at 756 µM (≈ 245 µg/mL).
With `CN(C)C(=O)c1ccc(-c2c(-c3ccccn3)nc3n2CCC3)cc1` [compound 974], the MIC is over 32 µg/mL in series [1] (read-out: VRE MIC); over 32 µg/mL in series [6] (16 h, read-out: MRSA MIC); over 32 µg/mL in [6] (read-out: MRSA MIC). The microsomal CLint in [3] (setting [13]) is under 3 µL/min/mg. Also, in series [4] (setting [14]), the hepatocyte CLint is under 1 µL/min/1e6 cells. Moreover, the fraction unbound in [5] (setting [15]) is 0.55. The solubility in the series “Aqueous solubility” (read-out: Aqueous Solubility) is 782 µM (≈ 260 µg/mL). In [6], the “activity against MRSA, in words” value is given as “not tolerated”.
